Like-named read-outs stand apart in the source and are kept apart here.
Columns and labels:
CCKB receptor [1] = conditions: cited from earlier work
CCKA receptor = biological target: T1, CCKA receptor (Rattus norvegicus, UniProt P30551); assay: 125I-CCK-8 receptor binding assay, CCKA (rat pancreas); conditions: for Ratio CCKB:CCKA: ratio of IC50 values; for CCKA binding activity in words: dimethylanilines with at least one meta group
T1 construct: Pancreatic membranes were prepared in a similar way; from tissue; host or cells: rat pancreas membranes
T1 sequence (P30551 1-444): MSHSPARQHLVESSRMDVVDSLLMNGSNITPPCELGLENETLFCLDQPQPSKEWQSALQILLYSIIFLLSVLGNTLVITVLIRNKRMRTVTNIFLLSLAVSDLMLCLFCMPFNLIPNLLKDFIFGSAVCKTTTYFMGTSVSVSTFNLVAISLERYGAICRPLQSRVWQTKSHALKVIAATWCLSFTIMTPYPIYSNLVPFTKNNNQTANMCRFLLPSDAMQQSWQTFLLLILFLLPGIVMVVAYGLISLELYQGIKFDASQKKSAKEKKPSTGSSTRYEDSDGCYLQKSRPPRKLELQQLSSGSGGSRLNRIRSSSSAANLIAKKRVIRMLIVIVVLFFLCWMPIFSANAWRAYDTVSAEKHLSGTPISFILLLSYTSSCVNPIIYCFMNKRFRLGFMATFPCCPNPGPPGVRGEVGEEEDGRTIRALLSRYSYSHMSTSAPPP
Procedure: (§1) CCKA and CCKB receptor binding assays were performed, by using guinea pig cerebral cortex (CCKB) or rat pancreas (CCKA). Male guinea pig brain tissues were prepared according to the modified method described by Saita et al [(1994), Characterization of YM022: its CCKB/gastrin receptor binding profile and antagonism to CCK-8-induced Ca2+ mobilization., Eur. J. Pharmacol., 269, 249-254]. Pancreatic membranes were prepared in a similar way but by Charpentier et al [(1988), Cyclic cholecystokinin analogues with high selectivity for central receptors., Proc Natl Acad Sci USA, 85, 1968-1972]. The […] CCK binding assay: Tissues were homogenised in ice cold sucrose (0.32 M, 25 ml) for 15 strokes at 500 rpm and centrifuged at 13000 rpm for 10 mins. The supernatant was re-centrifuged at 13000 rpm for 20 mins. The resulting pellet was re-dispersed to the required volume of buffer at 500 rpm and stored in aliquots at […].
(§2) The samples were incubated {with membranes (0.1 mg/ml)} in 20 mM Hepes, 1 mM EGTA, 5 mM MgCl2, 150 mm NaCl, 0.25 mg/ml bacitracin at pH 6.5 for 2 hrs at RT and then […] by centrifugation at 1100 rpm for 5 minutes. The membrane pellets were washed twice with water and the bound radioactivity was measured in a Packard Cobra Auto-gamma counter (B5005). All binding assays were carried out with L-363, 260 as an internal non-specific standard. Controls (no compound) were also added. All samples were made in duplicate and repeated twice. All compounds were initially screened for percentage inhibition at 20 μM.

CCKB receptor [2] = biological target: T2, CCKB receptor (Cavia porcellus, UniProt H0VZC5); assay: 125I-CCK-8 receptor binding assay, CCKB (guinea pig cerebral cortex)
T2 sequence (H0VZC5 1-426): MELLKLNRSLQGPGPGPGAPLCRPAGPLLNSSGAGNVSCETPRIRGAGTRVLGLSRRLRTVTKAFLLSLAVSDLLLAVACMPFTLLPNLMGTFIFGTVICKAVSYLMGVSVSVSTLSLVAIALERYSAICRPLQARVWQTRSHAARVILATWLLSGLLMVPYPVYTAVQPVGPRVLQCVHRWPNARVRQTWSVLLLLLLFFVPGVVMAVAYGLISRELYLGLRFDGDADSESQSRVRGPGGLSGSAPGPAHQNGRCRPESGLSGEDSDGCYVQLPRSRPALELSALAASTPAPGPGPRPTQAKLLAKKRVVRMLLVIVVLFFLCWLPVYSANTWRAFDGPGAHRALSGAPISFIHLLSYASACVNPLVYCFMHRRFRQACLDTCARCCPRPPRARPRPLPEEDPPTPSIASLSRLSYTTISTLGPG
Procedure: as §1, with “[…].” for “Male guinea pig brain tissues were prepared according to the modified method described by Saita et al [(1994), Characterization of YM022: its CCKB/gastrin receptor binding profile and antagonism to CCK-8-induced Ca2+ mobilization., Eur.”
as §2

[3] = biological target: T3, pancreatic and gallbladder CCK receptors (Homo sapiens, UniProt P32238); conditions: cited from earlier work
T3 sequence (P32238 1-428): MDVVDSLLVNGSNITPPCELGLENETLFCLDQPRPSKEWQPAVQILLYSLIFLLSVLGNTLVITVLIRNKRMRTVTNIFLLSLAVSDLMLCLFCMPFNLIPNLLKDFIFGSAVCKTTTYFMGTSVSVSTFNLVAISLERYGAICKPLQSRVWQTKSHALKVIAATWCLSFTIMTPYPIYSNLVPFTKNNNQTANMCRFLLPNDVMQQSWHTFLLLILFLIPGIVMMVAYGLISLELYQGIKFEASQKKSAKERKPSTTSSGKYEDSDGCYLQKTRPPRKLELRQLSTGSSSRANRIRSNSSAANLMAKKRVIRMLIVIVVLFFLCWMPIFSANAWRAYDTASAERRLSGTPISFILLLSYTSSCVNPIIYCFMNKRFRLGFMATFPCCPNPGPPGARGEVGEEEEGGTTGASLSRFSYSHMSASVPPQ

[4] = satiated rats; cited from earlier work
[5] = mice, after intravenous injections; cited from earlier work
[6] = as the HCl salt; cited from earlier work
MIA-PaCa2 cells = conditions: cited from earlier work; for IC50: MIA-PaCa2, read-out: IC50 cytotoxicity
CCKB/gastrin receptor = conditions: cited from earlier work
HT29-S-B6 cells = conditions: 10 μM, at least 3 days, exponential phase; cited from earlier work
[7] = tested on: advanced pancreatic cancer; conditions: 18 patients; cited from earlier work

SMILES: Cc1ccc(NC(=O)NC2N=C(C3CCCCC3)c3ccccc3N(C)C2=O)cc1Nc1nnn[nH]1 [L-737,425]
- CCKA/CCKB ratio (CCKB receptor [1]): 37000

SMILES: Cc1ccc(NC2N=C(c3ccccc3)c3cc(Cl)ccc3NC2=O)cc1C (stereo not drawn) [Example 48]
- IC50 (CCKA receptor; Table 3): 15 nM
- Ratio CCKB:CCKA (CCKA receptor; Table 3): 61
- CCKA binding activity in words (CCKA receptor): equally active
- IC50 (CCKB receptor [2]; IC50 CCKB, Table 3): 920 nM

SMILES: O=C1Nc2ccc(Cl)cc2C(c2ccccc2)=NC1Nc1ccccc1Cl (stereo not drawn) [Example 38]
- IC50 (CCKA receptor; Table 3): > 20000 nM
- IC50 (CCKB receptor [2]; IC50 CCKB, Table 3): 9300 nM

SMILES: CC(C)C[C@@H]1N[C@H]2N(C1=O)c1ccccc1[C@@]2(O)C[C@@H]1NC(=O)c2ccccc2-n2c1nc1ccccc1c2=O [Asperlicin]
- affinity relative to proglumide [3]: 300-400 times

SMILES: Cc1cccc(N(C)C2N=C(c3ccccc3)c3cc(Cl)ccc3N(CC(=O)C(C)(C)C)C2=O)c1 (racemic) [Example 64, 7-chloro-1-(3,3-dimethyl-2-oxobutyl)-3-(3-dimethylanilino)-5-phenyl-1,3-dihydro-2H-1,4-benzodiazepin-2-one]
- IC50 (CCKA receptor): ~24 nM
- IC50 (CCKB receptor [2]; read-out: IC50 CCKB): ~8 nM

SMILES: Cc1cccc(NC2N=C(c3ccccc3)c3cc(Cl)ccc3NC2=O)c1C (stereo not drawn) [Example 49]
- IC50 (CCKA receptor; Table 3): 18 nM
- Ratio CCKB:CCKA (CCKA receptor; Table 3): 333
- CCKA binding activity in words (CCKA receptor): equally active
- IC50 (CCKB receptor [2]; IC50 CCKB, Table 3): 6000 nM

SMILES: O=C1Nc2ccc(Cl)cc2C(c2ccccc2)=NC1Nc1ccc([N+](=O)[O-])cc1 (stereo not drawn) [Example 37]
- IC50 (CCKA receptor; Table 3): > 20000 nM
- IC50 (CCKB receptor [2]; IC50 CCKB, Table 3): 8500 nM

SMILES: Cc1cccc(NC(=O)N[C@@H]2N=C(c3ccccc3)c3ccccc3N(C)C2=O)c1 [L-365,260]
- potency relative to Devazepide in increasing feeding frequency [4]: 100 times
- IC50 (CCKB receptor [1]): 8.5 nM
- affinity for gastrin/CCKB receptors relative to pancreatic CCKA (CCKB receptor [1]): 80 fold
- selectivity for CCKB receptors over CCKA (CCKB receptor [1]): 87 fold
- brain uptake [5]: < 0.8 % dose/gram

SMILES: Cc1cccc(NC(=O)NC2N=C(N3CC4CCC(C4)C3)c3ccccc3N(C)C2=O)c1 [L-740,093]
- water solubility compared to L-365,260 [6]: one hundred fold improved

SMILES: N.N.[Cl][Pt][Cl] [DDP, cisplatin]
- IC50 (MIA-PaCa2 cells; 1-h exposure): 35300 ± 3200 nM

SMILES: Cc1cccc(N(C)C2N=C(c3ccccc3)c3cc(Cl)ccc3NC2=O)c1 (stereo not drawn) [Example 55, 7-chloro-3-(3-dimethylanilino)-5-phenyl-1,3-dihydro-2H-1,4-benzodiazepin-2-one]
- IC50 (CCKA receptor): 8 nM
- Ratio CCKB:CCKA (CCKA receptor; Table 3): 9
- IC50 (CCKB receptor [2]; IC50 CCKB): 70 nM

SMILES: Cc1cccc(NC(=O)NC2N=C(c3ccccc3)c3ccccc3N(CC(=O)c3ccccc3C)C2=O)c1 (stereo not drawn) [YM022]
- CCKA/CCKB ratio (CCKB/gastrin receptor): about 1300
- IC50 (CCKB/gastrin receptor; read-out: IC50 CCKB/gastrin receptor affinity): 0.11 nM

SMILES: Cc1cccc(C)c1NC1N=C(c2ccccc2)c2cc(Cl)ccc2NC1=O (stereo not drawn) [Example 47]
- IC50 (CCKA receptor; Table 3): 10000 nM
- IC50 (CCKB receptor [2]; IC50 CCKB, Table 3): > 10000 nM

SMILES: COc1ccccc1NC1N=C(c2ccccc2)c2cc(Cl)ccc2NC1=O (stereo not drawn) [Example 41]
- IC50 (CCKA receptor; Table 3): > 20000 nM
- IC50 (CCKB receptor [2]; IC50 CCKB, Table 3): 1500 nM

SMILES: O=C1Nc2ccc(Cl)cc2C(c2ccccc2)=NC1Nc1cccc(Cl)c1 (stereo not drawn) [Example 39, 7-chloro-3-(3-chloroanilino)-5-phenyl-1,3-dihydro-2H-1,4-benzodiazepin-2-one]
- IC50 (CCKA receptor): 270 nM
- Ratio CCKB:CCKA (CCKA receptor; Table 3): 23
- IC50 (CCKB receptor [2]; IC50 CCKB, Table 3): 6200 nM

SMILES: CN1C(=O)[C@@H](NC(=O)c2cc3ccccc3[nH]2)N=C(c2ccccc2)c2ccccc21 [Devazepide]
- enhancement of baseline production of carcinoembryonic antigens (HT29-S-B6 cells): 5 fold
- enhancement of baseline production of gastric M1 mucins (HT29-S-B6 cells): 2-3 fold
- impact on tumor progression, pain, or nutrition [7]: failed to demonstrate any impact
- patients able to tolerate treatment [7]: 17 of 18
- factor of enhancement of sensitivity of MIA-PaCa2 cells to DDP (MIA-PaCa2 cells): 3.5
- IC50 (MIA-PaCa2 cells; constant exposure schedule): 9500 ± 1400 nM

SMILES: O=C1Nc2ccc(Cl)cc2C(c2ccccc2)=NC1Nc1ccccc1[N+](=O)[O-] (stereo not drawn) [Example 35, 7-chloro-3-(2-nitroanilino)-5-phenyl-1,3-dihydro-2H-1,4-benzodiazepin-2-one]
- IC50 (CCKA receptor; Table 3): > 20000 nM
- IC50 (CCKB receptor [2]; IC50 CCKB, Table 3): 7500 nM

SMILES: Cc1cccc(NC(=O)NC2N=C(C3CCCCC3)c3ccccc3N(C)C2=O)c1 [L-708,474]
- IC50 (CCKB receptor [1]): 0.28 nM
- selectivity for CCKB receptors over CCKA (CCKB receptor [1]): 6,500 fold

Source: patent US20070185094A1, “Novel 3-substitued-1,4-benzodiazepines” (ASTON UNIVERSITY, priority 2003, published 2007)
